Measured values from US9512111B2, “N-sulfonylated tetrahydroquinolines and related bicyclic compounds for inhibition of RORγ activity and the treatment of disease” (Lycera Corporation, priority 2010, dated 2016).

Molecular target: T1, RORγ-LBD (Homo sapiens, UniProt P51449)
T1 construct: HIS-tagged RORγ-LBD was recombinantly expressed in SF9 cells; made in house; host or cells: SF9 cells (baculovirus); unpurified lysate
T1 sequence (P51449 269-508 limits assumed): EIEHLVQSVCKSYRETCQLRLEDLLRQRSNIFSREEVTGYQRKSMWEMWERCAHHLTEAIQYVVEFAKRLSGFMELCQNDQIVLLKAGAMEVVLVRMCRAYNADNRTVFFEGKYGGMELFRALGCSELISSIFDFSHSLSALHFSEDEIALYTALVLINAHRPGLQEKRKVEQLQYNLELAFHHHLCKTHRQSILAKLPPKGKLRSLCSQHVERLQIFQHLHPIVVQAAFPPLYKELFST
Assay: RORγ-Ligand Binding Domain TR-FRET Assay
Type: biochemical
Outline: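 Unpurified His-tagged LBD in Sf9 lysate (~10 nM final) in 25 mM HEPES pH 7.0, 100 mM NaCl, 0.01% Tween, 0.1% BSA, with biotinylated SRC1-2 LXXLL peptide (450 nM), Eu anti-His (2 nM) and streptavidin-APC (60 nM). Incubated 4 h to overnight; IC50 from 665/615 nm TR-FRET ratio.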

Row | Compound | IC50 (benzoxazines, Table 9) | IC50 (Table 8, indazoles)
1 | O=C(Cc1ccc(Cl)cc1)Nc1ccc2c(c1)N(S(=O)(=O)c1ccc(Cl)cc1)C[C@@H](CO)O2 [VI-50] | < 15 µM | 
2 | N#Cc1cccc(S(=O)(=O)N2C[C@@H](CO)Oc3ccc(NC(=O)c4c(F)cccc4F)cc32)c1 [VI-60] | < 15 µM | 
3 | NCC1CN(S(=O)(=O)c2ccc(F)cc2)c2cc(NC(=O)c3c(F)cccc3Cl)ccc2O1 (stereo not drawn) [VI-31] | < 15 µM | 
4 | COc1cccc(S(=O)(=O)n2ncc3ccc(NC(=O)c4c(F)cccc4F)cc32)c1 [Compound V-62] |  | < 15 µM
5 | O=C(Nc1ccc2cnn(S(=O)(=O)c3ccc(Cl)s3)c2c1)c1c(F)cccc1Cl [Compound V-96] |  | < 15 µM
6 | COc1ccc(S(=O)(=O)n2ncc3ccc(NC(=O)c4c(F)cccc4Cl)cc32)c(OC)c1 [Compound V-91] |  | < 15 µM
7 | O=C(Nc1ccc2cnn(S(=O)(=O)c3cccc(OC(F)F)c3)c2c1)c1c(Cl)cccc1Cl [Compound V-68] |  | < 15 µM
8 | O=C(Nc1ccc2cnn(S(=O)(=O)Cc3ccc(F)cc3)c2c1)c1c(F)cccc1Cl [Compound V-160] |  | < 15 µM
9 | Cn1cc(S(=O)(=O)n2ncc3ccc(NC(=O)c4c(F)cccc4Cl)cc32)cn1 [Compound V-112] |  | < 15 µM
10 | CC(=O)c1cccc(S(=O)(=O)n2ncc3ccc(NC(=O)c4c(Cl)cccc4Cl)cc32)c1 [Compound V-69] |  | < 15 µM
11 | Cc1nn(C(F)F)cc1S(=O)(=O)n1ncc2ccc(NC(=O)c3c(Cl)cccc3C(F)(F)F)cc21 [Compound V-21] |  | < 15 µM
12 | O=C(Cc1ccc(Cl)cc1)Nc1ccc2c(c1)N(S(=O)(=O)c1ccc(F)cc1)C[C@H](CO)O2 [VI-77] | < 15 µM | 
13 | CC(C)(C)c1cccc(S(=O)(=O)n2ncc3ccc(NC(=O)Cc4ccc(F)cc4)cc32)c1 [Compound V-23] |  | < 15 µM
14 | O=C(Nc1ccc2cnn(S(=O)(=O)Cc3ccccc3)c2c1)c1c(F)cccc1Cl [Compound V-155] |  | < 15 µM
15 | Cc1c(S(=O)(=O)n2ncc3ccc(NC(=O)c4c(F)cccc4Cl)cc32)cnn1C [Compound V-110] |  | < 15 µM
16 | O=C(Nc1ccc2cnn(S(=O)(=O)c3cccc(C(F)(F)F)c3)c2c1)c1c(F)cccc1Cl [Compound V-55] |  | < 15 µM
17 | CC(=O)c1ccc(S(=O)(=O)n2ncc3ccc(NC(=O)c4c(F)cccc4Cl)cc32)cc1 [Compound V-141] |  | < 15 µM
18 | C[C@H](O)[C@H]1CN(S(=O)(=O)c2ccc(F)cc2)c2cc(NC(=O)c3c(Cl)cccc3C(F)(F)F)ccc2O1 [VI-16] | < 15 µM | 
19 | Cc1cccc(S(=O)(=O)n2ncc3ccc(NC(=O)Cc4ccc(Cl)cc4)cc32)c1 [Compound V-31] |  | < 15 µM
20 | Cc1nc(C)c(S(=O)(=O)n2ncc3ccc(NC(=O)c4c(F)cccc4Cl)cc32)s1 [Compound V-89] |  | < 15 µM
21 | O=C(Nc1ccc2cnn(S(=O)(=O)c3cccc(OC(F)F)c3)c2c1)c1c(Cl)cccc1C(F)(F)F [Compound V-35] |  | < 15 µM
22 | O=C(Cc1ccc(Cl)cc1)Nc1ccc2cnn(S(=O)(=O)c3cccc(OC(F)F)c3)c2c1 [Compound V-29] |  | < 15 µM
23 | O=C(Nc1ccc2cnn(S(=O)(=O)c3cccc(Cl)c3)c2c1)c1c(F)cccc1F [Compound V-61] |  | < 15 µM
24 | CCCc1ccc(S(=O)(=O)n2ncc3ccc(NC(=O)c4c(F)cccc4Cl)cc32)cc1 [Compound V-115] |  | < 15 µM
25 | Cc1cccc(Cl)c1C(=O)Nc1ccc2cnn(S(=O)(=O)c3cccc(C(F)(F)F)c3)c2c1 [Compound V-8] |  | < 15 µM
26 | COc1cccc(S(=O)(=O)n2ncc3ccc(NC(=O)c4c(Cl)cccc4Cl)cc32)c1 [Compound V-73] |  | < 15 µM
27 | C[C@H]1CN(S(=O)(=O)c2ccc(F)cc2)c2cc(NC(=O)Cc3ccncc3)ccc2O1 [VI-130] | < 15 µM | 
28 | O=C(Nc1ccc2cnn(S(=O)(=O)c3cccc(OC(F)F)c3)c2c1)c1c(F)cccc1Cl [Compound V-85] |  | < 15 µM
29 | Cc1nn(C(F)F)cc1S(=O)(=O)n1ncc2ccc(NC(=O)c3c(F)cccc3Cl)cc21 [Compound V-104] |  | < 15 µM
30 | Cc1cccc(S(=O)(=O)n2ncc3ccc(NC(=O)Cc4ccc(F)cc4)cc32)c1 [Compound V-25] |  | < 15 µM

Other lines, results leading:

Row | IC50 (benzoxazines, Table 9) | IC50 (Table 8, indazoles) | Compound
31 |  | < 15 µM | N#Cc1cccc(S(=O)(=O)n2ncc3ccc(NC(=O)c4c(F)cccc4Cl)cc32)c1 [Compound V-121]
32 |  | < 15 µM | O=C(Nc1ccc2cnn(S(=O)(=O)c3cccc(OC(F)(F)F)c3)c2c1)c1c(F)cccc1Cl [Compound V-54]
33 |  | < 15 µM | O=C(Nc1ccc2cnn(S(=O)(=O)c3cccc(C(F)(F)F)c3)c2c1)c1c(Cl)cccc1Cl [Compound V-75]
34 |  | < 15 µM | O=C(Nc1ccc2cnn(S(=O)(=O)c3ccccc3OC(F)(F)F)c2c1)c1c(F)cccc1Cl [Compound V-130]
35 |  | < 15 µM | Cc1cccc(S(=O)(=O)n2ncc3ccc(NC(=O)Cc4cnc(C)s4)cc32)c1 [Compound V-5]
36 |  | < 15 µM | Cc1cccc(S(=O)(=O)n2nc(-c3ccc(C(=O)O)cc3)c3ccc(NC(=O)c4c(F)cccc4Cl)cc32)c1 [Compound V-10]
37 |  | < 15 µM | Cc1cccc(S(=O)(=O)n2ncc3ccc(NC(=O)c4c(F)cccc4F)cc32)c1 [Compound V-60]
38 |  | < 15 µM | Cc1cccc(S(=O)(=O)n2ncc3ccc(NC(=O)Cc4ccc(F)c(F)c4)cc32)c1 [Compound V-20]
39 |  | < 15 µM | COC(=O)c1cccc(S(=O)(=O)n2ncc3ccc(NC(=O)c4c(F)cccc4Cl)cc32)c1 [Compound V-108]
40 |  | < 15 µM | Cc1ccc(C)c(S(=O)(=O)n2ncc3ccc(NC(=O)c4c(F)cccc4Cl)cc32)c1 [Compound V-117]
41 |  | < 15 µM | O=C(Nc1ccc2cnn(S(=O)(=O)c3cc(Cl)sc3Cl)c2c1)c1c(F)cccc1Cl [Compound V-82]
42 |  | < 15 µM | CC(=O)c1cccc(S(=O)(=O)n2ncc3ccc(NC(=O)Cc4cnc(C)s4)cc32)c1 [Compound V-4]
43 |  | < 15 µM | CC(C)(C)c1cccc(S(=O)(=O)n2ncc3ccc(NC(=O)c4c(Cl)cccc4C(F)(F)F)cc32)c1 [Compound V-34]
44 |  | < 15 µM | CC(=O)c1cccc(S(=O)(=O)n2ncc3ccc(NC(=O)c4c(F)cccc4F)cc32)c1 [Compound V-59]
45 |  | < 15 µM | O=C(Nc1ccc2cnn(S(=O)(=O)c3ccc(Br)cc3)c2c1)c1c(F)cccc1Cl [Compound V-98]
46 |  | < 15 µM | O=C(Nc1ccc2cnn(S(=O)(=O)c3cccc(Cl)c3)c2c1)c1c(Cl)cccc1Cl [Compound V-72]
47 |  | < 15 µM | Cn1cnc(S(=O)(=O)n2ncc3ccc(NC(=O)c4c(F)cccc4Cl)cc32)c1 [Compound V-147]
48 |  | < 15 µM | O=C(Nc1ccc2cnn(S(=O)(=O)c3ccc(N4CCOCC4)nc3)c2c1)c1c(F)cccc1Cl [Compound V-95]
49 |  | < 15 µM | Cc1nn(C(F)F)cc1S(=O)(=O)n1ncc2ccc(NC(=O)c3c(F)cccc3C(F)(F)F)cc21 [Compound V-43]
50 |  | < 15 µM | Cc1ncc(CC(=O)Nc2ccc3cnn(S(=O)(=O)c4cccc(OC(F)F)c4)c3c2)s1 [Compound V-3]
51 |  | < 15 µM | O=C(Nc1ccc2cnn(S(=O)(=O)C3CCOCC3)c2c1)c1c(F)cccc1Cl [Compound V-79]
